This note sets out measurements from patent US4806532A, “Inhibition of epithelial phosphate transport” (Mayo Foundation for Medical Education and Research, priority 1985, dated 1989).

Several values for one entry are separate records, joined by “and”; a condition that tells them apart may be missing. Equal values may be shown once. Where a name gives a salt, the structure may show the parent alone.

For test [1], the target named is T1, Na-Pi cotransporter (Rattus norvegicus, UniProt Q06496).
T1 construct: from tissue; host or cells: rat renal cortex, brush border membrane vesicles
T1 sequence (Q06496 1-637): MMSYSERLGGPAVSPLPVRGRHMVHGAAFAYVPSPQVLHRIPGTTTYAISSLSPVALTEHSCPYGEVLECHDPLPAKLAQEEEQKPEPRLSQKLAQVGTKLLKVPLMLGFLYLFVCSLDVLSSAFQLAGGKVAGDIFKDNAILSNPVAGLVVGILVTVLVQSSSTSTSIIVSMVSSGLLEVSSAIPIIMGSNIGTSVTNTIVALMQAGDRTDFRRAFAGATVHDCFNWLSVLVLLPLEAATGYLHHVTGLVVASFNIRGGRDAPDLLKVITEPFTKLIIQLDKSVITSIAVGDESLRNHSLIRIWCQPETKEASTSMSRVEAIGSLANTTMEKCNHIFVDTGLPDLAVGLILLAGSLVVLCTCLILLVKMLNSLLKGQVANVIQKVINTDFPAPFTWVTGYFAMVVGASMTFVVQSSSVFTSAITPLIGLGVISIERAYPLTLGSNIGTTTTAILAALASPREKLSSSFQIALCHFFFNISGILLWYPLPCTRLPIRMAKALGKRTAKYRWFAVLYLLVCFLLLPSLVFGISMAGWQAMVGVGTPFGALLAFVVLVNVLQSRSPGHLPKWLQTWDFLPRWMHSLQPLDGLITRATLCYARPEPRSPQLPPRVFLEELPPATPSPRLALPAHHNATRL
Nature of the test: Reversibility of TPFA inhibition: 32Pi uptake of BBMV after preincubation and washout. It is filed as biochemical. The procedure:
The reversibility of the inhibition of ^32 Pi transport across BBMV by TPFA was explored using the following protocol. […] The suspensions of BBMV were incubated for 10 min at room temperature. At the end of incubation period, incubation mixtures were diluted with 10 ml of ice-cold MTH-medium, resuspended and centrifuged at 35,000×g for 20 min. The supernatant was discarded and BBMV pellet was suspended in MTH-medium and then assayed for Na^+ -gradient-dependent ^32 Pi uptake.

Test [2] has as its system L-[^3 H]--proline uptake by BBMV from rat small intestine. The test is described as follows: L-[3H]-proline uptake by intestinal BBMV. It is filed as biochemical. To be noted: 1 mM; for L-[3H]-proline uptake 15 sec: control 27 ± 0.2; for L-[3H]-proline uptake 120 min: control 53 ± 2.
For test [3], the target named is T2, Na-Pi cotransporter (Rattus norvegicus, UniProt Q9JJ09).
T2 construct: The intestinal BBMV fractions were prepared from mucosa of rat small intestine; from tissue; host or cells: rat small intestine mucosa, brush border membrane vesicles
T2 sequence (Q9JJ09 1-695): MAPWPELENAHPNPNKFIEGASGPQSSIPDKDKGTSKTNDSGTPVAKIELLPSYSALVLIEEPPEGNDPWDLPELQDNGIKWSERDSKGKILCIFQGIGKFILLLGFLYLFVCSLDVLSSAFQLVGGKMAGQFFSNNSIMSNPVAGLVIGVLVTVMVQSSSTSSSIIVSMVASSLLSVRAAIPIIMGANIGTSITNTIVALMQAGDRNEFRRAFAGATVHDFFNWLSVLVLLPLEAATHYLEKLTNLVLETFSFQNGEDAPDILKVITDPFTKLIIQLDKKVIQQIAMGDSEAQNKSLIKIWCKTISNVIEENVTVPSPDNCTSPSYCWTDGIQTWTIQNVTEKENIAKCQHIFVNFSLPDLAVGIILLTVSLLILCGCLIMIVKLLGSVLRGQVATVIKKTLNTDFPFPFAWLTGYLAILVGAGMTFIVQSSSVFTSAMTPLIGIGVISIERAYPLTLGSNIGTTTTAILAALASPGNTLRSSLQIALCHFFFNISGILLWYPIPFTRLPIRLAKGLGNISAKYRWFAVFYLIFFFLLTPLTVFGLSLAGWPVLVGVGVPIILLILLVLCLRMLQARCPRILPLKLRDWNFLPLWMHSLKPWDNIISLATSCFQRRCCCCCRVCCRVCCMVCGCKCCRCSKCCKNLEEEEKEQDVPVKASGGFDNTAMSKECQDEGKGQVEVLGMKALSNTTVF
Nature of the test: Na+-gradient-dependent 32Pi uptake by intestinal BBMV. It is filed as biochemical. Particulars: 1 mM; for effect on initial 32P uptake by intestinal BBMV (in words): FIG. 4, Table 7; for 32Pi-phosphate uptake 30 sec: initial phase, rat small intestine BBMV, control 75 ± 3. The procedure:
The intestinal BBMV fractions were prepared from mucosa of rat small intestine of rats using the modified magnesium- precipitation method as described by B. Steiger and H. Murer [Eur. J. Biochem., 135, 95 (1983)]. This intestinal BBMV fraction is analogous to the BBMV fraction isolated from kidney. The uptake of ^32 Pi in the presence of Na^+ -gradient [Nao^+ >Nai^+ ] was determined by a rapid filtration technique similar to that employed in the transport measurements on renal BBMV. The Na^+ -gradient [Nao^+ >Nai^+ ]-dependent Pi uptake in the initial phase was measured after 30 sec. The ^32 Pi uptake at equilibrium was measured at 180 min.

Test [4] relates to ^14 C--succinate uptake by BBMV from rat small intestine. The test is described as follows: 14C-succinate uptake by intestinal BBMV. It is filed as biochemical. To be noted: 1 mM; for 14C-succinate uptake 120 min: control 78 ± 3; for 14C-succinate uptake 15 sec: control 118 ± 7.
In test [5] the test system is intestinal BBM alkaline phosphatase. The test is described as follows: Effect on intestinal BBM alkaline phosphatase (data not shown). It is filed as biochemical, rat.

For `O=C(O)P(=O)(O)O` [TPFA, Phosphonoformic acid, trisodium salt hexahydrate], in test [1] (BBMV preincubated with 5 mM TPFA 10 min, diluted 1:10, washed, Experiments 1 and 2), the “32Pi uptake 120 min, TPFA-preincubated” value is 326 ± 5 pmoles/mg protein and 293 ± 3 pmoles/mg protein. In addition, the “32Pi uptake 20 sec, TPFA-preincubated” value in test [1] (BBMV preincubated with 5 mM TPFA 10 min, diluted 1:10, washed, Experiments 1 and 2, mean ± SEM) is 1240 ± 25 pmoles/mg protein and 1128 ± 38 pmoles/mg protein. The “rate of Na+-gradient-dependent BBMV uptake of Pi after washout of TPFA by dilution” value in test [1] (versus control BBMV not exposed to TPFA) is listed as “indistinguishable from control BBMV”. In test [2], the “L-[3H]-proline uptake 15 sec” value is recorded as 27 ± 0.4 pmoles/mg protein and the “L-[3H]-proline uptake 120 min” value came to 54 ± 0.1 pmoles/mg protein. In test [3], the “effect on initial 32P uptake by intestinal BBMV (in words)” value is reported as “markedly inhibited” and the “32Pi-phosphate uptake 30 sec” value came to 44 ± 2 pmoles/mg protein. In test [4], the “14C-succinate uptake 120 min” value was determined as 81 ± 1 pmol/mg protein and the “14C-succinate uptake 15 sec” value came to 125 ± 3 pmol/mg protein. Also, the “inhibition of intestinal BBM alkaline phosphatase” value in test [5] was “neither TPFA or PAA inhibited”.

With `O=C(O)CP(=O)(O)O` [PAA, phosphonoacetic acid], in test [2], the “L-[3H]-proline uptake 15 sec” value was determined as 27 ± 1.0 pmoles/mg protein and the “L-[3H]-proline uptake 120 min” value was 55 ± 1.0 pmoles/mg protein. Also, in test [3], the “effect on initial 32P uptake by intestinal BBMV (in words)” value is reported as “markedly inhibited” and the “32Pi-phosphate uptake 30 sec” value is reported as 51 ± 0.3 pmoles/mg protein. In addition, in test [4], the “14C-succinate uptake 120 min” value is 89 ± 3 pmol/mg protein and the “14C-succinate uptake 15 sec” value is given as 127 ± 2 pmol/mg protein. Further, the “inhibition of intestinal BBM alkaline phosphatase” value in test [5] is listed as “neither TPFA or PAA inhibited”.
